Experimental data as given in US20170095512A1, “METHODS OF INDUCING MYELINATION AND MATURATION OF OLIGODENDROCYTES” (KADIMASTEM LTD., priority 2014, published 2017).
“Also recorded” adds a separate entry of the source.

Assays:
[1] = tested on: human OPC derived from ES cells (O4+ cells); test: hOPC differentiation assay, O4+ cells (immunostaining, high content screening); type: cell-based
Protocol: In order to initiate differentiation 20,000 GPCs were seeded in each well of Matrigel coated plates of 96 wells, or on PolyD-Lysine/laminin (PDL/lam)-coated 96 well plates. Cells were grown in GM media for two to three days. Then GM was replaced by differentiation medium without growth factors, (DMEM/F12, 1% B27, 0.5% N2, Vitamin C (Sigma, 50 ug/ml). Differentiation medium was supplemented with the following tested compounds: […] All media were replaced every other day. Oligodendrocytes were characterized by the presence of the antigen detected by the monoclonal antibody O4 (IgM (R&D). Living cells reacted with O4 antibody diluted 1/200 in medium without growth factors (50 ul/well) and left for 40 minutes in the incubator at 37° C., washed once with GM, fixed with PFA 4% (170 ul per well) for 20 minutes at room temperature, washed 3 times with PBS. Dapi diluted to 0.5 ug/ml was introduced in the second wash for 10 min Afterwards the preparation was blocked with 5% normal goat serum in PBS-- for 20 min, washed and reacted with goat anti mouse IgM Ab-FITC conjugated (Millipore cat A[…]) diluted 1/500, for 45 minutes at room temperature, and washed three times with PBS--. ArrayScan VTI HCS reader system (Cellomis, Thermo-scientific) was used for scanning at least 20 fields for each tested well under 10× objective in both assays (differentiation and myelination). Cellomics Neural profiling bio-application was used for processing and analyzing the images. For differentiation assay, the following parameters were tested: number and percentage of O4+ cells, number of processes, processes length and number of branching points. For myelination assay, the same morphological parameters were tested and in addition: areas of myelinated axons in pixels (MBP&NF overlap area) and Number of myelinated regions (MBP&NF overlap count) were also analyzed. Modifications in the Neuro-profiling bio-application were conducted for this specific purpose. T-test analysis was used to compare between treatments. The 4-parameter Hill-Slope curve fittings were generated by GraphPad Prism software using least squares fitting method and EC50 values were calculated.

[2] = tested on: hPSC derived oligodendrocytes co-cultured with rodent dorsal root ganglia neurons (MBP+ cells); test: Co-culture myelination assay (human oligodendrocytes with DRG neurons), MBP staining; type: cell-based
Protocol: ArrayScan VTI HCS reader system (Cellomis, Thermo-scientific) was used for scanning at least 20 fields for each tested well under 10× objective in both assays (differentiation and myelination). Cellomics Neural profiling bio-application was used for processing and analyzing the images. For differentiation assay, the following parameters were tested: number and percentage of O4+ cells, number of processes, processes length and number of branching points. For myelination assay, the same morphological parameters were tested and in addition: areas of myelinated axons in pixels (MBP&NF overlap area) and Number of myelinated regions (MBP&NF overlap count) were also analyzed. Modifications in the Neuro-profiling bio-application were conducted for this specific purpose. T-test analysis was used to compare between treatments. The 4-parameter Hill-Slope curve fittings were generated by GraphPad Prism software using least squares fitting method and EC50 values were calculated.
DRG dissociated cells from mouse embryonic day 13 (E13) or rat embryonic day (E15) were seeded on matrigel and PDL-coated 96 well plates (20,000 cells/well). In order to allow long culture and co-culture of neuron axons in 96 well plates without de-attachment, a method where the periphery of each well was scratched leaving sticky edges (and smooth surface) was developed. This scratch methodology enables long lasting culture of neuron axons on 96 well format. Once DRG neurons were seeded they were fed with Neurobasal medium (Gibco) supplemented with B27 (Gibco) and 50 ng/ml NGF (Alomone labs) (NB medium) for 2-3 weeks prior hES-OPC addition. […]
For testing maturation and myelination capacity of the hPSC derived oligodendrocytes, a co-culture system between rodent dorsal root ganglia (DRGs) and hPSCs derived oligodendrocytes was used. The number of MBP+ cells (MBP, a marker of oligodendrocytes' myelin) and Myelin formation (measured by co-localization area between MBP and neurofilament positive neuronal axons) was quantified.

c1ccc2c(-c3cnn4cc(-c5ccc(N6CCNCC6)cc5)cnc34)ccnc2c1 [LDN-193189]
O4+ cells number / conversion of Olig2+ cells into O4+ cells (summary statement) [1]: increased the number of O4+ and Olig2+ cells; also recorded: stimulates
number of O4+ cells ([1]; day 21, Noggin 50 ng/ml + PDGF 20 ng/ml, Dorsomorphin 2 μM, LDN-193189 125 nM): increase in the number of O4+ cells
number of processes per cell ([1]; dose dependent manner): increased
total length of processes ([1]; dose dependent manner): increased
MBP+ cells number / differentiation into MBP+ cells (summary statement) [2]: increased also the number of MBP+ cells
number of MBP+ cells (mature oligodendrocytes) ([2]; 14 days co-culture, 125 nM LDN-193189 added to MYL media with 50 ng/ml Noggin, vs Noggin alone): increased the number of MBP+ cells; also recorded: significant increase
total cell count ([2]; 14 days co-culture, Noggin+LDN-193189 vs Noggin alone): no difference was observed
